Test results: patent US10065990B2, “Cyclic peptide compound, and preparation method, pharmaceutical composition and use thereof” (HANGZHOU GUANYU BIO-MEDICAL CO., LTD, priority 2013, dated 2018)
Like-named read-outs stand apart in the source and are kept apart here.

Key:
[1] = system: KBM5-T315I (human chronic myelogenous leukemia); experiment: MTT cancer cell growth inhibition; assay type: cell-based; details: Homo sapiens, 72 h, MTT, 72 hours incubation, KBM5-T315I cells; read-out: GI50 KBM5-T315I
Summary of the method: (§1)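 GI50 values come from MTT viability: after 72 h compound exposure (final 10^−5–10^−10 M, three wells each) of cells plated overnight at 1500/well in 10% FBS medium, MTT was given for 4 h. The DMSO-solubilised formazan was then measured at 570 nm.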

[2] = system: U937 (human leukemia cells); experiment: MTT cancer cell growth inhibition; assay type: cell-based; details: Homo sapiens, U-937, 72 h, MTT, 72 hours incubation; read-out: GI50 U93
Summary of the method: as §1

[3] = system: A549 (human lung cancer cells); experiment: MTT cancer cell growth inhibition; assay type: cell-based; details: Homo sapiens, A549, 72 h, MTT, 72 hours incubation; read-out: GI50 A54
Summary of the method: as §1

[4] = system: MDA-MB-231 (breast cancer cells); experiment: MTT cancer cell growth inhibition; assay type: cell-based; details: Homo sapiens, MDA-MB-231, 72 h, read-out: GI50 MDA-MB-231, MTT, 72 hours incubation, MDA-MB-231 cells
Summary of the method: as §1

[5] = system: Bel-7402 (human hepatoma cells); experiment: MTT cancer cell growth inhibition; assay type: cell-based; details: Homo sapiens, Bel-7402, 72 h, MTT, 72 hours incubation, Bel-7402 cells; read-out: GI50 Bel-7402
Summary of the method: as §1

[6] = system: MCF-7 (human breast cancer cells); experiment: MTT cancer cell growth inhibition; assay type: cell-based; details: Homo sapiens, MCF7, 72 h, 72 hours incubation, read-out: GI50 MCF
Summary of the method: as §1

[7] = system: BGC-823 (human gastric cancer cells); experiment: MTT cancer cell growth inhibition; assay type: cell-based; details: Homo sapiens, BGC-823, 72 h, MTT, 72 hours incubation; read-out: GI50 BG
Summary of the method: as §1

[8] = system: MOLT-4 (human acute lymphoblastic leukemia cells); experiment: MTT cancer cell growth inhibition; assay type: cell-based; details: Homo sapiens, MOLT-4, 72 h, MTT, 72 hours incubation; read-out: GI50 Mol
Summary of the method: as §1

[9] = system: DU145 (human prostate cancer cells); experiment: MTT cancer cell growth inhibition; assay type: cell-based; details: Homo sapiens, DU-145, 72 h, MTT, 72 hours incubation; read-out: GI50 Du1
Summary of the method: as §1

[10] = system: Hela (human cervical cancer cells); experiment: MTT cancer cell growth inhibition; assay type: cell-based; details: Homo sapiens, HeLa, 72 h, MTT, 72 hours incubation; read-out: GI50 Hela
Summary of the method: as §1

[11] = system: SGC-7901 (human gastric cancer cells); experiment: MTT cancer cell growth inhibition; assay type: cell-based; details: Homo sapiens, SGC-7901, 72 h, MTT, 72 hours incubation, SGC-7901 cells; read-out: GI50 SGC-7901
Summary of the method: as §1

[12] = system: HT1080 (human fibrosarcoma cells); experiment: MTT cancer cell growth inhibition; assay type: cell-based; details: Homo sapiens, HT-1080, 72 h, MTT, 72 hours incubation; read-out: GI50 HT1
Summary of the method: as §1

[13] = system: Huh-7 (human hepatoma cells); experiment: MTT cancer cell growth inhibition; assay type: cell-based; details: Homo sapiens, Huh-7, 72 h, MTT, 72 hours incubation, Huh-7 cells; read-out: GI50 Huh-7
Summary of the method: as §1

[14] = target: T1, HDAC7 (Homo sapiens, UniProt Q8WUI4); experiment: HDAC biochemical activity measurement (fluorescent substrate deacetylation);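 further: fluorogenic deacetylation assay using acetyl-lysine substrate at 20 µM, enzyme and compound incubated 30 min at 37 °C, then developer added, fluorescence read at 360/460 nm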; details: HDAC7; 37° C. 30 minutes
T1 sequence (Q8WUI4 1-952): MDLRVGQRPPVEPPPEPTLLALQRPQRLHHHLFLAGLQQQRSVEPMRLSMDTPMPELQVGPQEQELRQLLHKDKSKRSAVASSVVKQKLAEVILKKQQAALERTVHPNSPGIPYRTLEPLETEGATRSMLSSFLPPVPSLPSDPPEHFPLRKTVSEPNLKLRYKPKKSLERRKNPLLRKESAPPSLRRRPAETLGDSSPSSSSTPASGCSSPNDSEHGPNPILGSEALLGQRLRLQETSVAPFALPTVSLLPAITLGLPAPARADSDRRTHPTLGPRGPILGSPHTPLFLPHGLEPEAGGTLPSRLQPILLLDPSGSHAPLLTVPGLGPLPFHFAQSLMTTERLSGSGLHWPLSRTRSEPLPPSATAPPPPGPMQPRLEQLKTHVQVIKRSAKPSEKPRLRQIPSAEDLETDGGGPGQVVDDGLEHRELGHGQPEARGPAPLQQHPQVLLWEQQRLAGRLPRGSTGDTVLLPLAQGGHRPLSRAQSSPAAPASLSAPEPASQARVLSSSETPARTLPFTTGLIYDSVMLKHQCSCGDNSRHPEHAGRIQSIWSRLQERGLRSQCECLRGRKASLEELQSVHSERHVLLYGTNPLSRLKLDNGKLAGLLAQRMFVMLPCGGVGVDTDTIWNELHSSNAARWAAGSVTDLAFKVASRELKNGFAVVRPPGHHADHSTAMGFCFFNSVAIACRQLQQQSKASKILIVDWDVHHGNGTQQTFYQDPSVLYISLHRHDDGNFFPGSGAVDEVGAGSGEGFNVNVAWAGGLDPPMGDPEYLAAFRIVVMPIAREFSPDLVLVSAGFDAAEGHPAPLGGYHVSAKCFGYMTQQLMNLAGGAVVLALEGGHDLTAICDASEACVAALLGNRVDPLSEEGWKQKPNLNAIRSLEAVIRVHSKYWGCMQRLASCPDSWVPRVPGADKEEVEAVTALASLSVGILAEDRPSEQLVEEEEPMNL

[15] = target: HDAC2 (Homo sapiens, UniProt Q92769); experiment: as above; details: 37° C. 30 minutes;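 further: HDAC2 enzyme with an acetyl-lysine fluorescent substrate, then developer added, fluorescence read at excitation 360 nm and emission 460 nm, inhibition measured across several compound concentrations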
Chain of HDAC2 (Q92769 whole entry, species assumed): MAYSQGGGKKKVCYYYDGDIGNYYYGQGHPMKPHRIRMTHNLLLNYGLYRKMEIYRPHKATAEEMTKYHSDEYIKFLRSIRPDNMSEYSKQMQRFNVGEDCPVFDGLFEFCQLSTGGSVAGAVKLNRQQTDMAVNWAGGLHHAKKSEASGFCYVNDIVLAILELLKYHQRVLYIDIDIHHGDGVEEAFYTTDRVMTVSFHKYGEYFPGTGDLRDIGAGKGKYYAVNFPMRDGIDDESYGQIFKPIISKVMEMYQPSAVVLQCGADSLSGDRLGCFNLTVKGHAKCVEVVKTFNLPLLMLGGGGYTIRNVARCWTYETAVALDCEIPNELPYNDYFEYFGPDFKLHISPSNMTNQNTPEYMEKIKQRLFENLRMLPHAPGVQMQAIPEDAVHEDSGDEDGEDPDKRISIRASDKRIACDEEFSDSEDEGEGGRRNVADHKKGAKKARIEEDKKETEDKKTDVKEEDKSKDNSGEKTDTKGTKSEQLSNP

[16] = target: HDAC1 (Homo sapiens, UniProt Q13547); experiment: as above;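 further: fluorogenic acetyl-lysine substrate (20 µM) deacetylated by HDAC1, then developer releases fluorophore read at 360 nm excitation and 460 nm emission, inhibitor incubated 30 min at 37 °C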
Chain of HDAC1 (Q13547 whole entry, species assumed): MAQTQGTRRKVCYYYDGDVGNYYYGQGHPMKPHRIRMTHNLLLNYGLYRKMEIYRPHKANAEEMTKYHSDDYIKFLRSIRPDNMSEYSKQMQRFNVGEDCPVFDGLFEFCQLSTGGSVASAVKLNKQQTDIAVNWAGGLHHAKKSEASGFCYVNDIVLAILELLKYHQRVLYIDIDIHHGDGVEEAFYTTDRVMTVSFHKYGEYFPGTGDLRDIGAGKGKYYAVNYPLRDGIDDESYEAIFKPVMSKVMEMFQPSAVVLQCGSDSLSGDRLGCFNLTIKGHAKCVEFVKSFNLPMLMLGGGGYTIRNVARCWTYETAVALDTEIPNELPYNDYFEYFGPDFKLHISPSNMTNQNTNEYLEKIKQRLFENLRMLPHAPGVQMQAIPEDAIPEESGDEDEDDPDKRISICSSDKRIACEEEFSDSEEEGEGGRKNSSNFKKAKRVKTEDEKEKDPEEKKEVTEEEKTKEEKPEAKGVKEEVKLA

[17] = HDAC1, 37° C. 30 minutes, read-out: IC50 HDAC1
[18] = Table 3, read-out: IC50 HDAC1, D (non-substituent)
[19] = Table 3, column C, read-out: IC50 HDAC1, C (six-membered ring with substituents)

| SMILES | GI50 [1] [nM] | GI50 [2] [nM] | GI50 [3] [nM] | GI50 [4] [nM] | GI50 [5] [nM] | GI50 [6] [nM] | GI50 [7] [nM] | GI50 [8] [nM] | GI50 [9] [nM] | GI50 [10] [nM] | GI50 [11] [nM] | GI50 [12] [nM] | GI50 [13] [nM] | IC50 HDAC7 [14] | IC50 [15] [nM] | IC50 [16, 17] [nM] | IC50 [16, 18] [nM] | IC50 [16, 19] [nM] |
| --- | --- | --- | --- | --- | --- | --- | --- | --- | --- | --- | --- | --- | --- | --- | --- | --- | --- | --- |
| C/C=C1\NC(=O)c2cccc(n2)CNC(=O)C[C@@H](/C=C/CCSC(C)=O)OC(=O)[C@H](Cc2ccc(O)cc2)NC1=O [Compound 18] | 37 | 11300 | 3800 | 78 | 95 | 490 | 53100 | 59700 | 420 | 370 | 42 | 10800 | 65 | no activity | 55 | 187 | 187 | – |
| CC(=O)SCC/C=C/[C@@H]1CC(=O)NCc2cccc(n2)C(=O)NC(=C(C)C)C(=O)N[C@@H](C(C)C)C(=O)O1 [Compound 20] | 33 | 20200 | 320 | 96 | 86 | 1900 | 1100 | 130 | 1980 | 10 | 63 | 980 | 72 | no activity | 77 | 183 | 183 | – |
| C/C=C1\NC(=O)c2nc(ccc2F)CNC(=O)C[C@@H](/C=C/CCSC(=O)CCCCCCC)OC(=O)[C@H](C(C)C)NC1=O [Compound 30] | 22 | 30 | 30 | 37 | 82 | 20 | 30 | 30 | 30 | 80 | 35 | 80 | 37 | no activity | 56 | 12 | – | 12 |
| C/C=C1\NC(=O)c2nc(ccc2F)CNC(=O)C[C@@H](/C=C/CCSC(=O)CCCCCC)OC(=O)[C@H](C(C)C)NC1=O [Compound 33] | 51 | 20 | 50 | 31 | 83 | 50 | 60 | 30 | 10 | 80 | 52 | 80 | 31 | no activity | 43 | 23 | – | 23 |
| C/C=C1\NC(=O)c2nc(ccc2F)CNC(=O)C[C@@H](/C=C/CCSC(=O)CCCCC)OC(=O)[C@H](C(C)C)NC1=O [Compound 36] | 57 | 20 | 40 | 43 | 62 | 50 | 30 | 40 | 20 | 60 | 47 | 60 | 43 | no activity | 43 | 11 | – | 11 |
| C/C=C1\NC(=O)c2cc(F)cc(n2)CNC(=O)C[C@@H](/C=C/CCSC(=O)CCCC)OC(=O)[C@H](C(C)C)NC1=O [Compound 40] | 55 | 40 | 40 | 35 | 74 | 50 | 70 | 30 | 40 | 70 | 45 | 70 | 35 | no activity | 53 | 43 | – | 43 |
| C/C=C1\NC(=O)c2cc(F)cc(n2)CNC(=O)C[C@@H](/C=C/CCSC(=O)CCC)OC(=O)[C@H](C(C)C)NC1=O [Compound 43] | 54 | 60 | 50 | 36 | 73 | 50 | 30 | 30 | 50 | 80 | 52 | 70 | 36 | no activity | 51 | 27 | – | 27 |
| C/C=C1\NC(=O)c2cc(F)cc(n2)CNC(=O)C[C@@H](/C=C/CCSC(=O)CC)OC(=O)[C@H](C(C)C)NC1=O [Compound 46] | 47 | 30 | 50 | 35 | 52 | 40 | 40 | 30 | 30 | 90 | 57 | 50 | 35 | no activity | 41 | 22 | – | 22 |
| C/C=C1\NC(=O)c2cc(F)cc(n2)CNC(=O)C[C@@H](/C=C/CCSC=O)OC(=O)[C@H](C(C)C)NC1=O [Compound 52] | 67 | 60 | 50 | 31 | 91 | 60 | 50 | 30 | 20 | 80 | 51 | 90 | 31 | no activity | 62 | 45 | – | 45 |
| C/C=C1\NC(=O)c2cc(F)cc(n2)CNC(=O)C[C@@H](/C=C/CCSC(=O)CCCCCCC)OC(=O)[C@H](CC)NC1=O [Compound 55] | 73 | 50 | 50 | 29 | 81 | 70 | 50 | 20 | 30 | 80 | 59 | 80 | 29 | no activity | 34 | 13 | – | 13 |
